Data published in patent US8193353B2, “6-1H-imidazo-quinazoline and quinolines derivatives, new potent analgesics and anti-inflammatory agents” (Rottapharm S.p.A, priority 2006, dated 2012).
Read-outs that look alike come from different tables or passages of the source.

How the values were obtained:
IL-6 = IL-6 production in IL-1 stimulated human chondrosarcoma cell line; assay type: cell-based; details: 0.3 μM
Description: (§1) The compounds of the invention have been found effective in interfering with COX-2 and cytokines production, in several cell lines; examples of these effects are reported in Table 3, for COX-2 and IL-1β and IL-6 cytokines, in IL-1 stimulated human chondrosarcoma cell line.

[1] = system: Zymosan induced paw volume increase; experiment: Zymosan-induced paw oedema; assay type: in vivo, rat; details: oral, 2 hours after challenge
Experimental: (§2) The interplantar injection of Zymosan-induced mechanical hyperalgesia was used as a model of inflammatory pain (Meller, Neuropharmacology, 1994, 33, 1471-1478). In this model, typically a male Sprague-Dawley or Wistar rat (200-250 g) receives an interplantar injection of 3 mg/100 μl zymosan into one hind paw. A marked inflammation occurs in this hind paw. Drugs are administered orally for evaluation of efficacy, 30 min. before the inflammatory insult. The hyperalgesia induced by zymosan administration was evaluated using the Randall-Selitto method (Arch. Int. Pharmacodyn., 1957, 111, 409). The quantitation of the analgesic effect is achieved by an analgesimeter, which consist in applying to the inflamed paw an increasing weight (from 130-140 g up to 500 g). The difference in the mechanical pain threshold between the basal value (generally 230-250 g) and the one tolerated by the animals treated with the drug, determined 4 hours after the inflammatory challenge, is defined as mechanical hyperalgesia. Mechanical hyperalgesia is expressed for the compounds of the invention as ED50, which is the dose of the administered compound able to increase the pain threshold by 50% in comparison with the group of control animals. The corresponding ED100, representing the dose able of reducing of 100% the pain threshold, can be calculated for those cases where there is a linear dose-response relationship. In vivo anti-inflammatory effect exerted by the compound of the invention can be assessed in the same Zymosan induced inflammation test described above, by measuring the volume of the oedema induced by the inflammatory agent. The oedema was evaluated as the increase in the volume of the Zymosan injected paw within a time of 0-2 hrs. The measurements of the variation of the oedema volume of the paw were recorded using hydroplethysmometer, which consists of two plastic cuvettes containing a surfactant liquid, the larger one being used for immersion of the paw, connected to the smaller one which contains a transducer capable of recording small displacements of the volume used for the measure. The paw is immersed in the cuvettes up to the tibiotarsal joint. The volume of the liquid displaced is proportional to the extent of the inflammation. The efficacy of the compounds of the invention in preventing oedema formation is expressed as ED30, is measured 2 hours after the inflammatory challenge, and represents the dose able of reducing of 30%, the Zymosan induced paw volume increase in comparison to control animals (animals treated with Zymosan but treated with only distilled water instead of the testing compound). The corresponding ED50, representing the dose able of reducing of 50% the Zymosan induced paw volume increase, can be calculated for those cases where there is a linear dose-response relationship. In both the experiments, for each test compound, at least three doses were used, with 10 animals per group. Compounds of the invention were tested at 10, 20 and 40 mg/Kg.

IL-1β = IL-1β production in IL-1 stimulated human chondrosarcoma cell line; assay type: cell-based; details: 0.3 μM
Description: as §1

[2] = system: Zymosan-induced mechanical hyperalgesia; experiment: Zymosan-induced mechanical hyperalgesia (Randall-Selitto), inflammatory pain; assay type: in vivo, rat; details: for ED50: Rattus norvegicus, read-out: Analgesia ED50
Experimental: as §2

COX-2 = COX-2 production in IL-1 stimulated human chondrosarcoma cell line; assay type: cell-based; details: Homo sapiens; 0.3 μM
Description: as §1

[3] = system: mechanical hyperalgesia associated with STZ-induced diabetes; experiment: STZ-induced diabetes mechanical hyperalgesia (neuropathic pain); assay type: in vivo, rat; details: for ED50: Rattus norvegicus, ip, read-out: ED50 0.5 hrs; for ED100 0.5 hrs: i.p.
Experimental: Painful diabetic neuropathy is one of the most common complications of insulin-dependent diabetes in man; in particular, diabetes can be associated with neuropathic pain which fails to be treated by classical analgesics. Streptozotocin (STZ)-induced diabetes in the rat has been increasingly used as a model of painful diabetic neuropathy to assess the efficacies of potential analgesic agents (C. Courteix, Pain 1993, 53, 81-8). The compounds of the invention were tested for efficacy in reducing mechanical hyperalgesia associated with STZ-induced diabetes in the rat, according to the experimental model as described by the literature. Diabetes was produced with the injection of a single dose (75 mg/Kg i.p.) of STZ. In the following four weeks after the induction of diabetes the clinical symptoms (weight, body and skin temperature, motility and hyperglycemia) progressively developed by the animals, are strictly monitored. After four weeks, the scores obtained in diabetic rats to various pain stimuli (in particular mechanical stimuli) were greater than those in normal rats, indicating hyperalgesia. The hyperalgesia induced by diabetes was evaluated using the Randall-Selitto method as above described, and quantitated using the analgesimeter. Also in this case, the difference in the mechanical pain threshold between the basal value (generally 230-250 g) and the one tolerated by the animals treated with the drug, is defined as mechanical hyperalgesia. The compounds of the invention were administered i.p. (solution, Tween 80, 10% in saline) at different doses, and mechanical hyperalgesia was measured at the reported time, as maximum percent effect (MPE) which represents the difference (%) in pain threshold between the animals treated with the drug and the controls that received only the vehicle, compared with the weight borne by naïf non-diabetic controls. A 100% protection means that the diabetic animals treated with the compound can tolerate the same stimulus (weight) as the naïf non-diabetic animals. MPE higher than 100% means that the diabetic animal treated with the compound can tolerate stimuli (weight) higher than the control non-diabetic animals (hypoalgesia).
In particular, from the MPE data at 0.5 hrs, the doses yielding a protection of 50% (ED50) and 100% (ED100) have been calculated.

[4] = system: CFA-induced prolonged inflammation; experiment: CFA model of chronic inflammatory pain; assay type: in vivo, rat
[5] = oral, 30 min before zymosan, 4 hours after challenge
[6] = calculated from MPE data at 0.5 hrs

## c1ccc(-c2ncc3cc(-n4ccnc4)ccc3n2)cc1 [Example 1, [2-phenyl-6-(1H-imidazol-1-yl)]quinazoline]
IL-6
  inhibition at 0.3 µM: 35%
[1]; Rattus norvegicus, read-out: Oedema Reduction ED50
  ED50: 97 mg/kg
[1]
  Oedema Reduction ED30: 7.3 mg/kg
IL-1β
  inhibition at 0.3 µM: 10%
[2]; [5]
  ED50: 6.5 mg/kg
  Analgesia ED100: 10 mg/kg
COX-2
  inhibition at 0.3 µM: 20%
[3]; 3 mg/kg i.p.
  MPE 0.5 hrs.: 24%
[3]; 10 mg/kg i.p.
  MPE 0.5 hrs.: 41%
  MPE 1.5 hrs.: 68%
[3]; 30 mg/kg i.p.
  MPE 0.5 hrs.: 236%
  MPE 1.5 hrs.: 225%
  MPE 3 hrs.: 171%
[3]; 30 mg/kg i.p., 6 hrs
  MPE 6 hrs.: 34%
[3]; [6]
  ED50: 5.5 mg/kg
  ED100 0.5 hrs: 9.6 mg/kg
[4]; 3 mg/kg i.p.
  MPE 0.5 hrs.: 52%
  MPE 1.5 hrs.: 4%
[4]; 10 mg/kg i.p.
  MPE 0.5 hrs.: 67%
  MPE 1.5 hrs.: 63%
  MPE 3 hrs.: 29%
  MPE 6 hrs.: 22%
  MPE 24 hrs.: 5%
[4]; 30 mg/kg i.p.
  MPE 0.5 hrs.: 367%
  MPE 1.5 hrs.: 368%
  MPE 3 hrs.: 321%
  MPE 6 hrs.: 239%
  MPE 24 hrs.: 60%
[4]; Rattus norvegicus, ip, calculated from MPE data at 0.5 hrs
  ED50: 5.5 mg/kg
[4]; i.p., calculated from MPE data at 0.5 hrs
  ED100 0.5 hrs: 9.6 mg/kg

## CN1C(C(=O)Nc2ccccn2)=C(O)c2ccccc2S1(=O)=O [Piroxicam, reference compound]
[4]; 30 mg/kg i.p.
  MPE 0.5 hrs.: 102%
  MPE 1.5 hrs.: 111%
  MPE 3 hrs.: 54%
  MPE 6 hrs.: 24%
  MPE 24 hrs.: 38%

## COc1cccc(C2(O)CCCCC2CN(C)C)c1 (stereo not drawn) [Tramadol, reference compound]
[2]
  ED50: 25.7 mg/kg
[2]; [5]
  Analgesia ED100: 405 mg/kg
[3]; 3 mg/kg i.p.
  MPE 0.5 hrs.: 26%
  MPE 1.5 hrs.: 53%
  MPE 3 hrs.: 7%
[3]; 10 mg/kg i.p.
  MPE 0.5 hrs.: 58%
  MPE 1.5 hrs.: 48%
  MPE 3 hrs.: 27%
[3]; 30 mg/kg i.p.
  MPE 0.5 hrs.: 54%
  MPE 1.5 hrs.: 64%
  MPE 3 hrs.: 23%
[3]; 50 mg/kg i.p.
  MPE 0.5 hrs.: 81%
  MPE 1.5 hrs.: 60%
  MPE 3 hrs.: 43%
[3]; 0.5 h
  ED50: 10.9 mg/kg
[3]; extrapolated from a dose-response curve approaching the 100% protection
  ED100 0.5 hrs: 251 mg/kg
